Test results from PubChem BioAssay AID1963984 (Molecular Pharmacology Branch, DTP, NCI, 2024).

System: 233499-124-R-J3-PDC spheroids with HUVEC/MSC, viability
Experiment: Anticancer human tumor 233499-124-R-J3-PDC patient-derived colon adenocarcinoma cell line growth inhibition [PI3K]
Conditions: for IC50: curve of first compound; for viability, T/C: stronger effect = lower value
Summary of the method: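 High-throughput combination screen: PI3K inhibitors crossed with targeted small molecules on complex spheroids of tumor cells, HUVEC and MSCs at 37 degrees C, 5% CO2. Top concentration was at or near clinical Cmax (otherwise 10 microM), with half-log decrements.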

[1] = second compound 0.0316 µM, first compound 0.0316 µM
[2] = second compound 0.0316 µM, first compound 0.1 µM
[3] = second compound 0.1 µM, first compound 0.0316 µM
[4] = second compound 0.1 µM, first compound 0.1 µM
[5] = second compound 0.316 µM, first compound 0.0316 µM
[6] = second compound 0.316 µM, first compound 0.1 µM
[7] = second compound 1 µM, first compound 0.0316 µM
[8] = second compound 1 µM, first compound 0.1 µM
[9] = second compound 3.16 µM, first compound 0.0316 µM
[10] = second compound 3.16 µM, first compound 0.1 µM
[11] = second compound 10 µM, first compound 0.0316 µM
[12] = second compound 10 µM, first compound 0.1 µM
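Note: spheroids exposed to agents for seven days before readout.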
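Throughout, for viability, T/C: percent viability relative to DMSO vehicle control taken as 100%.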

## CC(C)n1nc(-c2ccc3oc(N)nc3c2)c2c(N)ncnc21 + Cc1nc(NC(=O)N2CCCC2C(N)=O)sc1-c1ccnc(C(C)(C)C(F)(F)F)c1
Second compound 0.0316 µM
  IC50: > 100 nM
Second compound 0.1 µM
  IC50: 85.9 nM
Second compound 0.316 µM
  IC50: > 100 nM
Second compound 1 µM
  IC50: 37.5 nM
Second compound 3.16 µM
  IC50: 5.81 nM
Second compound 10 µM
  IC50: < 0.316 nM
Second compound 0.0316 µM, first compound 0.000316 µM
  viability, T/C: 103%
Second compound 0.0316 µM, first compound 0.001 µM
  viability, T/C: 90.9%
Second compound 0.0316 µM, first compound 0.00316 µM
  viability, T/C: 103%
Second compound 0.0316 µM, first compound 0.01 µM
  viability, T/C: 64.7%
[1]
  viability, T/C: 92.6%
[2]
  viability, T/C: 55.2%
Second compound 0.1 µM, first compound 0.000316 µM
  viability, T/C: 99.4%
Second compound 0.1 µM, first compound 0.001 µM
  viability, T/C: 92.4%
Second compound 0.1 µM, first compound 0.00316 µM
  viability, T/C: 54.8%
Second compound 0.1 µM, first compound 0.01 µM
  viability, T/C: 86%
[3]
  viability, T/C: 84%
[4]
  viability, T/C: 45.1%
Second compound 0.316 µM, first compound 0.000316 µM
  viability, T/C: 89.9%
Second compound 0.316 µM, first compound 0.001 µM
  viability, T/C: 81%
Second compound 0.316 µM, first compound 0.00316 µM
  viability, T/C: 90.1%
Second compound 0.316 µM, first compound 0.01 µM
  viability, T/C: 79.1%
[5]
  viability, T/C: 67.7%
[6]
  viability, T/C: 53.9%
Second compound 1 µM, first compound 0.000316 µM
  viability, T/C: 68%
Second compound 1 µM, first compound 0.001 µM
  viability, T/C: 71.8%
Second compound 1 µM, first compound 0.00316 µM
  viability, T/C: 82.1%
Second compound 1 µM, first compound 0.01 µM
  viability, T/C: 62.4%
[7]
  viability, T/C: 55.3%
[8]
  viability, T/C: 25.2%
Second compound 3.16 µM, first compound 0.000316 µM
  viability, T/C: 61.2%
Second compound 3.16 µM, first compound 0.001 µM
  viability, T/C: 50.6%
Second compound 3.16 µM, first compound 0.00316 µM
  viability, T/C: 73%
Second compound 3.16 µM, first compound 0.01 µM
  viability, T/C: 39.7%
[9]
  viability, T/C: 43.7%
[10]
  viability, T/C: 30.7%
Second compound 10 µM, first compound 0.000316 µM
  viability, T/C: 43.7%
Second compound 10 µM, first compound 0.001 µM
  viability, T/C: 26.4%
Second compound 10 µM, first compound 0.00316 µM
  viability, T/C: 29.7%
Second compound 10 µM, first compound 0.01 µM
  viability, T/C: 26.3%
[11]
  viability, T/C: 24.5%
[12]
  viability, T/C: 6.69%

## CCCS(=O)(=O)Nc1ccc(F)c(C(=O)c2c[nH]c3ncc(-c4ccc(Cl)cc4)cc23)c1F + Cc1nc(NC(=O)N2CCCC2C(N)=O)sc1-c1ccnc(C(C)(C)C(F)(F)F)c1
Second compound 0.0316 µM
  IC50: 5290 nM
Second compound 0.1 µM
  IC50: 4820 nM
Second compound 0.316 µM
  IC50: 4830 nM
Second compound 1 µM
  IC50: 4700 nM
Second compound 3.16 µM
  IC50: 3570 nM
Second compound 10 µM
  IC50: < 31.6 nM
[1]
  viability, T/C: 119%
[2]
  viability, T/C: 98.2%
Second compound 0.0316 µM, first compound 0.316 µM
  viability, T/C: 87.2%
Second compound 0.0316 µM, first compound 1 µM
  viability, T/C: 110%
Second compound 0.0316 µM, first compound 3.16 µM
  viability, T/C: 89%
Second compound 0.0316 µM, first compound 10 µM
  viability, T/C: 1.84%
[3]
  viability, T/C: 97%
[4]
  viability, T/C: 109%
Second compound 0.1 µM, first compound 0.316 µM
  viability, T/C: 84.8%
Second compound 0.1 µM, first compound 1 µM
  viability, T/C: 92.5%
Second compound 0.1 µM, first compound 3.16 µM
  viability, T/C: 77.7%
Second compound 0.1 µM, first compound 10 µM
  viability, T/C: 4.22%
[5]
  viability, T/C: 98.9%
[6]
  viability, T/C: 81.7%
Second compound 0.316 µM, first compound 0.316 µM
  viability, T/C: 84.5%
Second compound 0.316 µM, first compound 1 µM
  viability, T/C: 98.1%
Second compound 0.316 µM, first compound 3.16 µM
  viability, T/C: 78.2%
Second compound 0.316 µM, first compound 10 µM
  viability, T/C: 1.3%
[7]
  viability, T/C: 82.8%
[8]
  viability, T/C: 71.8%
Second compound 1 µM, first compound 0.316 µM
  viability, T/C: 86.3%
Second compound 1 µM, first compound 1 µM
  viability, T/C: 67%
Second compound 1 µM, first compound 3.16 µM
  viability, T/C: 75.3%
Second compound 1 µM, first compound 10 µM
  viability, T/C: 1.86%
[9]
  viability, T/C: 55.8%
[10]
  viability, T/C: 59.1%
Second compound 3.16 µM, first compound 0.316 µM
  viability, T/C: 49.1%
Second compound 3.16 µM, first compound 1 µM
  viability, T/C: 53.9%
Second compound 3.16 µM, first compound 3.16 µM
  viability, T/C: 59.4%
Second compound 3.16 µM, first compound 10 µM
  viability, T/C: 4.28%
[11]
  viability, T/C: 34.1%
[12]
  viability, T/C: 35.4%
Second compound 10 µM, first compound 0.316 µM
  viability, T/C: 50.9%
Second compound 10 µM, first compound 1 µM
  viability, T/C: 29.8%
Second compound 10 µM, first compound 3.16 µM
  viability, T/C: 22.8%
Second compound 10 µM, first compound 10 µM
  viability, T/C: 0.89%
